Test results published in PMC12814185, “Receptor-Mediated Shuttling of a D‑Amino Acid Peptide Achieves High Nanomolar Cytosolic Concentrations” (Journal of the American Chemical Society, 2025).
Where a SMILES comes first, the peptide text is derived from it. Bridges are numbered along the chain shown (N, C = ends). Roman numbers before positions name the chains, in order. Triazole bridges read from a SMILES are 1,4-linked. Where no end group is shown, it is not given here. Side-chain parts run from the residue outwards. [ ]: non-standard residue; d: D form. The star is where a group is joined. X2 = CN1C(=C/C=C/C=C/C2=[N+](CCCCCC(=O)*)c3ccc(S(=O)(=O)[O-])cc3C2(C)C)C(C)(C)c2cc(S(=O)(=O)O)ccc21; X1 = CN1C(=CC=CC=CC2=[N+](CCCCCC(=O)*)c3ccc(S(=O)(=O)[O-])cc3C2(C)C)C(C)(C)c2cc(S(=O)(=O)O)ccc21; Lys(N3) = [N-]=[N+]=NCCCC[C@H](N)C(=O)O; Cit = NC(=O)NCCC[C@H](N)C(=O)O; d(hCys) = N[C@H](CCS)C(=O)O; PEG3 = NCCOCCOCCOCCC(=O)O; Pra = C#CC[C@H](N)C(=O)O

Legend:
HEK293 cells = assay: Live cell fluorescence microscopy of peptide internalization, cells without CMKLR1; format: cell-based; conditions: 1 μM Cy5-labeled peptide, 6 h
Method: 2 Internalization of cyclic chemerin-9 conjugates. Live cell fluorescence microscopy of HEK293 and HEK293 cells stably expressed CMKLR1-eYFP. Cells were incubated with 1 μM Cy5-labeled peptide for 6 h before imaging. Blue = Hoechst33342, yellow = CMKLR1-eYFP, magenta = Cy5-peptide, scale bar ≙ 10 μm. […]
Salt Solution (HBSS, Biowest), pH 7.5) for 1 h. […]
Experiments were performed in technical duplicates and at least […]
HEK293 and HEK293_CMKLR1-eYFP cells were seeded at 15,000 cells per well into poly-ᴅ-lysine coated 96-well plates (black µCLEAR, Greiner). The next day, dilutions of the Cy5 -labeled peptides or Nutlin-3a […]
Cells were then washed and a resazurin-based cell viability […]
assay was performed. […]
Experiments […]
were performed in technical triplicates and at least twice.
Peptide internalization was evaluated by fluorescence microscopy. HEK293 and stably transfected […]
microscopy slides (ibidi). The next day, 1 µM Cy5-labeled peptides in cell culture medium were added to the cells and incubated for 6 h.
FluoroBriteTM DMEM (Gibco) with 10% FBS, 25 mM HEPES (pH 7.4) before imaging on an AxioVision Observer.Z1 microscope equipped with an apotome imaging system, an HXP120C light source, and a C-Apochromat 63x/1.20 W objective. All shown microscopy images are representative of at least two

[1] = FCS diffusion coefficient in solution; format: physicochemical; conditions: 10 nM in Fluorobrite DMEM, 22 °C, mean and SD of three independent measurements
Excerpt: Fluorescence correlation spectroscopy (FCS) […] Nuclei were […] HEPES (pH 7.4). […] Prior to measurements, the correction collar of the objective […] Repeats […] is the autocorrelation at τ, N the average number of molecules in the focal volume, τD the average diffusion time through the focal volume, α the anomalous coefficient describing the hindered diffusion, S the shape factor of the focal volume, τE the time domain of the additional exponential term and E the fraction of molecules in the exponential term. […] [nM] [nM] […] 100 23.5 ± 40.2 11.9 *÷ 3.0 10.2 (5.2-32.1) 1000 138 ± 122 87.7 *÷ 3.0 98.8 (37.8-199) 10000 308 ± 257 239 *÷ 2.0 228 (157-435) […] Table S8. Predicted and measured diffusion coefficients D in solution. Measurements were performed with 10 nM of fluorescent compounds in Fluorobrite […] Data from three independent measurements. Mean and standard deviation are shown. name molecular predicted D measured […]] sulfo-Cy5 778.0 - 341.6 (reference) […] Intracellular cleavage product 2401.8 244.7 - 3Cy […]9 4475.1 175.0 138.5 ± 5.1 Intracellular cleavage product 2733.2 234.4 - 18

HEK293_CMKLR1-eYFP cells = assay: Intracellular peptide stability (cleavage products in cell lysate, RP-HPLC, MALDI-ToF-MS); conditions: 1 μM peptide; for intact peptide in cell lysate: 15 min to 24 h, RP-HPLC λex 640 nm λem 670 nm; for cleavage site identified by MALDI-ToF-MS: PMIγ sequence remained intact
Method: 3 Quantification of Cy5-labeled peptides in the cytosol. (A) RP-HPLC (λex = 640 nm, λem = 670 nm) of cleavage products of Cy5-labeled peptides in the lysate of HEK293_CMKLR1-eYFP cells after incubation with 1 μM peptide for different durations. […] (B) Representative fluorescence correlation spectroscopy (FCS) autocorrelation curves of Cy5-labeled peptides measured in the cytosol of HEK293_CMKLR1-eYFP cells after 72 h of incubation. Measured curves were fitted with a model for hindered 3D diffusion and diffusion time t D and anomalous coefficient α were calculated from the fit. Autocorrelation data represent mean ± SD of up to 10 consecutive 5 s measurements in a single cell. (C) Intracellular concentrations of Cy5-labeled peptides after 72 h incubation calculated from the fitted autocorrelation curves obtained in HEK293_CMKLR1-eYFP, HMEC-1, and THP-1 cells. Each data point corresponds to FCS measurements from the cytosol of a single cell. Median with the interquartile range is shown. Data from three independent experiments. Statistical comparison by log-normal unpaired t test. ***p ≤ 0.001, **p ≤ 0.01, *p ≤ 0.05, ns – not significant. […] (D) Calculated diffusion coefficients from the fitted autocorrelation curves. Median with the interquartile range is shown.
Intracellular peptide stability
2 mL of 1 µM Cy5-labeled peptide in DMEM/Ham's F12 (1:1) + 15% FBS without phenol red were incubated on stably transfected HEK293_CMKLR1-eYFP cells in T25 cell culture flasks for 15 min to 24 h. The cells were washed with cold acidic wash (50 mM glycine, 100 mM sodium chloride, pH 3) and phosphate-buffered saline (PBS, Biowest) and harvested into 300 µl cold PBS with HaltTM Protease inhibitor cocktail (Thermo).
Suspended cells were homogenized with zirconia beads on a FastPrep-24 5G system (MP Biomedical) for 30 s and cellular proteins were precipitated from 600 µL ACN/ethanol (1:1) + 0.1% TFA at -20 °C for 2 h.
Cell lysates were then filtered through Costar Spin-X tubes, separated by RP-HPLC and isolated peaks were identified by MALDI-ToF MS (Ultraflextreme, Bruker). Experiments were performed at least twice and representative RP-HPLC chromatograms are shown.

Row | Molecule | internalization (HEK293 cells) | measured D in solution [1] | intact peptide in cell lysate (HEK293_CMKLR1-eYFP cells) | incubation time after which a singular cleavage product peak was observed (HEK293_CMKLR1-eYFP cells; RP-HPLC of lysate) | fate of the hsLMWP sequence (HEK293_CMKLR1-eYFP cells; lysate, MALDI-ToF-MS) | cleavage site identified by MALDI-ToF-MS (HEK293_CMKLR1-eYFP cells; lysate)
1 | I: GSVSHHHHHHGGHHHH[PEG3][dK]([PEG3-X1])[dD][dW][dW][dP][dL][dA][dF][dE][dA][dL][dL][dR]GEV[Cit][PEG3][Pra]-NH2 / II: Ac-[Lys(N3)]YFP[d(hCys)]QFAFC-OH (triazole I:36-II:1; disulfide II:5-II:10) [3Cy] | very faint intracellular signals | 138.5 ± 5.1 µm2/s | almost no intact peptide was detected | 1 h | completely removed | valine-citrulline linker was quickly cleaved
2 | CC(=O)N[C@@H](CCCCn1cc(C[C@H](NC(=O)CCOCCOCCOCCNC(=O)[C@H](CCCNC(N)=O)NC(=O)[C@@H](NC(=O)[C@H](CCC(=O)O)NC(=O)CNC(=O)CNC(=O)[C@@H](CCCNC(=N)N)NC(=O)[C@@H](CC(C)C)NC(=O)[C@@H](CC(C)C)NC(=O)[C@@H](C)NC(=O)[C@@H](CCC(=O)O)NC(=O)[C@@H](Cc2ccccc2)NC(=O)[C@@H](C)NC(=O)[C@@H](CC(C)C)NC(=O)[C@H]2CCCN2C(=O)[C@@H](Cc2c[nH]c3ccccc23)NC(=O)[C@@H](Cc2c[nH]c3ccccc23)NC(=O)[C@@H](CC(=O)O)NC(=O)CCOCCOCCOCCNC(=O)CCCCC[N+]2=C(/C=C/C=C/C=C3N(C)c4ccc(S(=O)(=O)O)cc4C3(C)C)C(C)(C)c3cc(S(=O)(=O)[O-])ccc32)C(C)C)C(N)=O)nn1)C(=O)N[C@@H](Cc1ccc(O)cc1)C(=O)N[C@@H](Cc1ccccc1)C(=O)N1CCC[C@H]1C(=O)N[C@@H]1CCSSC[C@@H](C(=O)O)NC(=O)[C@H](Cc2ccccc2)NC(=O)[C@H](C)NC(=O)[C@H](Cc2ccccc2)NC(=O)[C@H](CCC(N)=O)NC1=O [2Cy] (I: {X2-PEG3}-[dD][dW][dW][dP][dL][dA][dF][dE][dA][dL][dL][dR]GGEV[Cit][PEG3][Pra]-NH2 / II: Ac-[Lys(N3)]YFP[d(hCys)]QFAFC-OH; triazole I:19-II:1; disulfide II:5-II:10) | did not internalize | 154.2 ± 4.3 µm2/s | almost no intact peptide was detected | – | – | valine-citrulline linker was quickly cleaved
